Laboratory results as given in patent publication US8226965B2, “Methods of treating fungal, yeast and mold infections” (priority 2008, dated 2012).

Assays:
[1] = test system: Trichophyton rubrum, Trichophyton mentagrophytes and Epidermophyton floccosum; experiment: Spontaneous resistance development, overall; format: cell-based
Method: Phenotypically resistant isolates were tested for MICs and compared to parental MICs.

[2] = test system: T. rubrum mycelia and microconidia; experiment: Time-kill experiments; format: cell-based, Trichophyton rubrum; conditions: for reduction in colony counts: 16×MIC, up to 24 hours, hyphae or microconidia in water (nongrowth)
Method: Time-kill experiments. […] Part of the conidial suspension was pelleted and resuspended in RPMI 1640 medium and grown for 16-18 hours overnight at room temperature to allow germination of microconidia. After germination, the hyphae were collected by centrifugation and resuspended in distilled water. […] Colony-forming units were counted after four days of incubation at 35° C.

[3] = cited from earlier work

Compound | stable resistance of recovered isolates [1] | reduction in colony counts [2] | activity on nongrowing mycelia and conidia ([2]; FIG. 10) | solubility in dichloromethane [3] | solubility in methanol [3]
Cc1cc(C2CCCCC2)n(O)c(=O)c1 [Ciclopirox] | none of the isolates were stably resistant | None of the other compounds significantly reduced colony counts | no activity against the conidial form |  | 
CN(C/C=C/C#CC(C)(C)C)Cc1cccc2ccccc12.Cl [Terbinafine hydrochloride] |  |  |  | freely soluble | freely soluble
CN(C/C=C/C#CC(C)(C)C)Cc1cccc2ccccc12 [Terbinafine] | none of the isolates were stably resistant | None of the other compounds significantly reduced colony counts |  |  | 
